# Assay results taken from US11944632B2, “Use of sodium dichloroisocyanurate (NaDCC) and a pharmaceutical formulation prepared therefrom” (SAVA HEALTHCARE LTD, priority 2020, dated 2024).
# pIC50: −log10 of the molar value.
# Legend:
# Bacterial membrane = details: cited from earlier work
# Escherichia coli = details: cited from earlier work
# [1] = test system: 29 Gram-positive and 29 Gram-negative bacteria, as well as 66 fungi; details: independent of pH and temperature; cited from earlier work
# [2] = temperate and tropical climates; cited from earlier work
# coliforms and E. coli = details: 25 mg/ml, raw river water; cited from earlier work
# COVID-19 virus = assay: Anti-COVID activity: inhibition of virus replication; details: Severe acute respiratory syndrome coronavirus 2, read-out: Inhibition of the virus replication
# [3] = Stability of NaDCC solution (HDPE bottle); details: tables 6 to 9
# Bacillus licheniformis = assay: Susceptibility of bacteria isolated from Garcinia cambogia extract to NaDCC; format: cell-based
# Description: (§1) The bacteria (Bacillus licheniformis, and Bacillus paralicheniformis) and fungus (Aspergillus sps) isolated from the Salacia reticulata and bacteria Bacillus licheniformis isolated from Garcinia cambogia extract was tested for susceptibility for the sensitivity towards NaDCC.
# mammalian cell vero6 = assay: Anti-COVID activity: cell survival (cytotoxicity); details: vero6 cells infected with COVID-19 virus
# [4] = test system: microbial load of Salacia extract; assay: % microbial load reduction in Salacia extract; details: for Total cfu/g: untreated 21000
# Text: Example 4: % Microbial Load Reduction in Ayurvedic Herbs and Extracts by Using Sodium Dichloroisocyanurate (NaDCC)
# [5] = test system: Bacillus licheniformis, and Bacillus paralicheniformis; assay: Susceptibility of bacteria isolated from Salacia reticulata to NaDCC; format: cell-based
# Description: as §1
# [6] = Cyanuric acid and free available chlorine in lung homogenate after NaDCC DPI; details: administered as a DPI
# Description: Further, the so obtained NaDCC DPI was clinically assessed by determining the amount of cyanuric acid in the tissues.
# Aspergillus sps = assay: Susceptibility of fungus isolated from Salacia reticulata to NaDCC; format: cell-based
# Description: as §1
# [7] = NaDCC 0.05% to 5% mixed with Salacia extract (inference)
smiles,measurement,setting,value
"OCl [HOCl, Hypochlorous acid]",Concentration below which bacterial membrane disruption and release of cell contents is not observed,Bacterial membrane,below 5 mM
same,HOCl concentration that completely inhibited cell division,Escherichia coli; Escherichia coli,50 µM
same,pIC50,"Escherichia coli; read-out: HOCl required for 50% inhibition of bacterial growth, 5×10^8 Escherichia coli/ml",4.70
"O=c1[n-]c(=O)n(Cl)c(=O)n1Cl.[Na+] [NaDCC, Sodium 3,5-dichloro-2,4,6-trioxo-1,3,5-triazinan-1-ide]",Antimicrobial activity,[1],effective
same,Shelf life,[2],5 years
same,Reduction of viable bacteria,coliforms and E. coli,1.8-2.8 logs
same,inhibition at 600 ppm,COVID-19 virus,> 100%
same,Stability in acetic acid and cyanuric acid as a solution (inference),[3],stable
same,Antibacterial activity (FIG. 2),Bacillus licheniformis,effective antibacterial activity
same,Survival of cell (FIG. 3B),mammalian cell vero6,increase the survival of cell
same,Total cfu/g,"[4]; 0.02 g NaDCC in 10 g Salacia extract (0.2%), batch RDP/SR/073",<10 cfu/g
same,Total cfu/g,"[4]; 0.04 g NaDCC in 10 g Salacia extract (0.4%), batch RDP/SR/074",<10 cfu/g
same,% microbial reduction,"[4]; 0.2% of input extract, batch RDP/SR/073",>99%
same,% microbial reduction,"[4]; 0.4% of input extract, batch RDP/SR/074",>99%
same,Reduction in bacterial counts,[4]; [7],4 logs
same,Reduction of bacterial load,[4]; [7],99.99%
same,Antibacterial activity (FIG. 1),[5],effective antibacterial activity
same,Metabolism / tissue accumulation,[6],metabolized fast with a short half-life and not accumulated in tissues
same,Anti-fungal activity (FIG. 1),Aspergillus sps,anti-fungal activity
